The supplement of paper PMC13380429

How the values were obtained:
[1] = tested on: Vero E6; assay: cell viability relative to DMSO; higher = less toxic; conditions: 72 h
[2] = tested on: HepG2; assay: as above; conditions: 72 h
[3] = tested on: Caco-2; assay: as above; conditions: 72 h
[4] = tested on: Calu-3; assay: as above; conditions: 72 h
[5] = tested on: U2OS; assay: as above; conditions: 72 h
[6] = tested on: A549-ACE2 infected with SARS-CoV-2; assay: SARS-CoV-2 infection rate relative to DMSO; higher = more infection; conditions: 24 h
[7] = tested on: A549-ACE2 infected with SARS-CoV-2; assay: morphology score (similarity to uninfected cells); higher = more like uninfected cells; conditions: 24 h
[8] = tested on: A549-ACE2; assay: phospholipidosis EC50; higher = less potent phospholipidosis inducer
[9] = tested on: Vero E6; assay: drug sensitivity score (DSS) for viability; higher = more toxic; extreme values may be limits of the assay; conditions: 72 h
[10] = tested on: HepG2; assay: as above; conditions: 72 h
[11] = tested on: Caco-2; assay: as above; conditions: 72 h
[12] = tested on: Calu-3; assay: as above; conditions: 72 h
[13] = tested on: U2OS; assay: as above; conditions: 72 h
[14] = tested on: Vero E6; assay: relative viability EC50 (midpoint between 100% and the lowest measured viability); higher = less toxic; conditions: 72 h
[15] = tested on: HepG2; assay: as above; conditions: 72 h
[16] = tested on: Caco-2; assay: as above; conditions: 72 h
[17] = tested on: Calu-3; assay: as above; conditions: 72 h
[18] = tested on: U2OS; assay: as above; conditions: 72 h
[19] = tested on: A549-ACE2; assay: drug-induced phospholipidosis relative to tamoxifen; higher = more phospholipidosis
[20] = tested on: A549-ACE2 infected with SARS-CoV-2; assay: cell count relative to DMSO; higher = less toxic; conditions: 24 h

CN1CCN(Cc2ccc(-c3cnc4[nH]cc(-c5ccc6[nH]ccc6c5)c4c3)cc2)CC1 [URMC-099]
Conditions	SARS-CoV-2 infection rate [%]	cell count [%]	cell viability [%]	morphology score	phospholipidosis EC50 [µM]
[1], 1 nM	–	–	92.9	–	–
[1], 10 nM	–	–	102	–	–
[1], 100 nM	–	–	95.4	–	–
[1], 1000 nM	–	–	105	–	–
[1], 10000 nM	–	–	0.9	–	–
[2], 1 nM	–	–	111	–	–
[2], 10 nM	–	–	89.8	–	–
[2], 100 nM	–	–	95.8	–	–
[2], 1000 nM	–	–	89.2	–	–
[2], 10000 nM	–	–	5.3	–	–
[3], 1 nM	–	–	103	–	–
[3], 10 nM	–	–	107	–	–
[3], 100 nM	–	–	104	–	–
[3], 1000 nM	–	–	111	–	–
[3], 10000 nM	–	–	7.8	–	–
[4], 1 nM	–	–	93.1	–	–
[4], 10 nM	–	–	100	–	–
[4], 100 nM	–	–	95.3	–	–
[4], 1000 nM	–	–	128	–	–
[4], 10000 nM	–	–	111	–	–
[5], 1 nM	–	–	99	–	–
[5], 10 nM	–	–	95.5	–	–
[5], 100 nM	–	–	104	–	–
[5], 1000 nM	–	–	95.2	–	–
[5], 10000 nM	–	–	3.5	–	–
[6], 0.1 µM	99	–	–	–	–
[6], 0.3 µM	102	–	–	–	–
[6], 1 µM	85	–	–	–	–
[6], 3 µM	18	–	–	–	–
[7], 0.1 µM	–	–	–	0.26	–
[7], 0.3 µM	–	–	–	0.37	–
[7], 1 µM	–	–	–	0.6	–
[7], 3 µM	–	–	–	0.68	–
[8], 24 h	–	–	–	–	1.07
[8], 48 h	–	–	–	–	4.29
[8], 72 h	–	–	–	–	8.25
[20], 0.1 µM	–	111	–	–	–
[20], 0.3 µM	–	105	–	–	–
[20], 1 µM	–	110	–	–	–
[20], 3 µM	–	108	–	–	–

Conditions	drug sensitivity score	relative viability EC50 [µM]
[9]	5.1	–
[10]	7	–
[11]	4.4	–
[12]	0	–
[13]	6	–
[14]	–	3.45
[15]	–	2.23
[16]	–	3.71
[17]	–	> 10
[18]	–	2.79

drug-induced phospholipidosis [%], [19]
Conditions	0.3 µM	0.833333 µM	3.33333 µM	6.66667 µM	10 µM
24 h	3.77	15.4	149	143	136
48 h	2.54	6.25	111	164	208
72 h	3.51	1.18	69.5	69.5	200

O=C1C=C2C=C[C@@H]3C[C@@]2(O1)[C@H]1CCCCN31 [securinine]
Conditions	SARS-CoV-2 infection rate, [6] [%]	cell count, [20] [%]	cell viability, [1] [%]	cell viability, [2] [%]	cell viability, [3] [%]	cell viability, [4] [%]	cell viability, [5] [%]	morphology score, [7]
1 nM	–	–	93.1	94.9	76.4	96.5	103	–
10 nM	–	–	101	103	91.5	88.5	94.9	–
100 nM	–	–	92.5	104	104	101	103	–
0.3 µM	108	92	–	–	–	–	–	-0.16
1000 nM	–	–	97.5	108	90.1	92.1	95.1	–
3 µM	107	97	–	–	–	–	–	-0.26
10000 nM	–	–	101	99.8	99.5	98.5	94.9	–
10 µM	109	103	–	–	–	–	–	-0.24
30 µM	87	84	–	–	–	–	–	-0.11

Conditions	drug sensitivity score	relative viability EC50 [µM]
[9]	0	–
[10]	0	–
[11]	0	–
[12]	0	–
[13]	0	–
[14]	–	> 10
[15]	–	> 10
[16]	–	> 10
[17]	–	> 10
[18]	–	> 10

drug-induced phospholipidosis [%], [19]
Conditions	0.3 µM	0.833333 µM	3.33333 µM	6.66667 µM	10 µM	30 µM
24 h	4.04	-1.29	-2.26	-0.14	0.15	3.11
48 h	4.43	0.73	0.81	3.64	1.66	8.62
72 h	5.5	-2.31	1.12	1.57	2.55	11.9
